{"source": "patent US20240360177A1", "about": "“PEPTIDES WITH ANTIMICROBIAL ACTIVITIES” (priority 2021, published 2024)", "key": {"C. albicans": {"tested_on": "C. albicans", "details": "ATCC 90028 or 90029; 24 hrs"}, "C. glabrata": {"tested_on": "C. glabrata", "details": "ATCC 90030; 24 hrs"}, "C. parapsilosis": {"tested_on": "C. parapsilosis", "details": "ATCC 22019; 24 hrs"}, "C. krusei": {"tested_on": "C. krusei", "details": "MMX 7135; 24 hrs"}, "C. auris": {"tested_on": "C. auris", "details": "CDC 386; 24 hrs"}, "C. tropicalis": {"tested_on": "C. tropicalis", "details": "ATCC 90874; 24 hrs"}, "C. dubliniensis": {"tested_on": "C. dubliniensis", "details": "ATCC MYA-578; 24 hrs"}, "C. neoformans": {"tested_on": "C. neoformans", "details": "ATCC 90112; 72 hrs"}, "C. gattii": {"tested_on": "C. gattii", "details": "ATCC MYA-4093; 72 hrs"}, "Candida spp.": {"tested_on": "Candida spp.", "details": "15 strains (Table 10)"}, "[1]": {"test": "Cytotoxicity in HepG2 cells, intracellular ATP assay", "details": "human, EC50 cytotoxicity in HepG2, intracellular ATP assay, Table 16; 18-22 hrs exposure without FBS"}}, "note": "Non-standard residues stand in square brackets, D forms with d. Residues, ends and D or L forms follow the SMILES beside them. hArg = N=C(N)NCCCC[C@H](N)C(=O)O"}
{"smiles": "N=C(N)NCCCC[C@H](NC(=O)[C@@H](CCCNC(=N)N)NC(=O)[C@H](CCCCNC(=N)N)NC(=O)[C@@H](CCCNC(=N)N)NC(=O)[C@@H]1CCCN1C(=O)[C@H](CCCCNC(=N)N)NC(=O)[C@@H](CCCNC(=N)N)NC(=O)[C@H](CCCCNC(=N)N)NC(=O)[C@@H](CCCNC(=N)N)NC(=O)[C@@H]1CCCN1C(=O)[C@@H](CCCNC(=N)N)NC(=O)[C@H](CCCCNC(=N)N)NC(=O)[C@@H](CCCNC(=N)N)NC(=O)[C@@H]1CCCN1C(=O)[C@@H](CCCNC(=N)N)NC(=O)[C@H](CCCCNC(=N)N)NC(=O)[C@H](N)CCCNC(=N)N)C(N)=O", "note": "[SEQ ID NO: 88, r(Har)r-P-r(Har)r-P-r(Har)r(Har)-P-r(Har)r(Har)-NH2] (H-[dR][hArg][dR]P[dR][hArg][dR]P[dR][hArg][dR][hArg]P[dR][hArg][dR][hArg]-NH2)", "values": [{"measurement": "MIC C. albicans", "setting": "C. albicans", "result": 0.5, "unit": "µg/mL"}, {"measurement": "MIC C. glabrata", "setting": "C. glabrata", "result": 0.5, "unit": "µg/mL"}, {"measurement": "MIC C. parapsilosis", "setting": "C. parapsilosis", "result": 0.25, "unit": "µg/mL"}, {"measurement": "MIC C. krusei", "setting": "C. krusei", "result": 0.5, "unit": "µg/mL"}, {"measurement": "MIC C. auris", "setting": "C. auris", "result": 0.5, "unit": "µg/mL"}, {"measurement": "MIC C. tropicalis", "setting": "C. tropicalis", "result": 0.5, "unit": "µg/mL"}, {"measurement": "MIC C. dubliniensis", "setting": "C. dubliniensis", "result": 0.5, "unit": "µg/mL"}, {"measurement": "MIC C. neoformans", "setting": "C. neoformans", "result": 0.5, "unit": "µg/mL"}, {"measurement": "MIC C. gattii", "setting": "C. gattii", "result": 0.5, "unit": "µg/mL"}, {"measurement": "MIC50 Candida species", "setting": "Candida spp.", "result": 0.5, "unit": "µg/mL"}, {"measurement": "MIC90 Candida species", "setting": "Candida spp.", "result": 1, "unit": "µg/mL"}, {"measurement": "EC50", "setting": "[1]", "result": "> 300", "unit": "µg/mL"}]}
